# Data from patent US5668157A, “Cyanoguanidines as K-channel blockers” (Pharmacia & Upjohn Company, priority 1996, dated 1997).
# Experiments:
# [1] = system: K^+ channel, rabbit mesenteric artery (RMA) rings; conditions: pinacidil 1 μM, norepinephrine-contracted RMA rings; cited from earlier work
# [2] = system: K^+ channel, rabbit mesenteric artery (RMA) rings; assay: Inhibition of pinacidil-induced relaxation of norepinephrine-contracted isolated rabbit mesenteric artery (RMA) rings (K^+ channel antagonism); type: cell-based; conditions: Oryctolagus cuniculus, 0.25 h, pinacidil 1 μM, norepinephrine 5 μM, read-out: RMA K^+ Antagonism % I (percent inhibition of pinacidil relaxation at 15 minutes); for inhibition at 10 µM: conc. 10 μM; for inhibition at 0.1 µM: conc. 0.1 μM; for inhibition at 0.3 µM: conc. 0.3 μM
# Experimental: The results for potassium channel blocking were obtained by using isolated rabbit mesenteric artery (RMA) procedures. Norepinephrine (5 μM) was used to contract the RMA rings twice, with an hour separating the two contractions. During this hour the tissues equilibrated in physiological salt solution at a resting tension of 1 gram. Upon the plateau of the second contraction 1 μM pinacidil was added to all tissues and the resulting relaxation time course was studied for thirty minutes. […] By studying the ability of the test compounds to inhibit this pinacidil-induced relaxation, the degree of potassium antagonism could be determined. The compounds were applied to the tissues for one hour between the two contractions and the pinacidil-induced relaxation was studied in the continuing presence of the compounds. Thus, the total time of pretreatment with the test compound was 75 minutes before the addition of pinacidil.
# (§1) Data for K^+ channel antagonist activity on rabbit mesenteric artery (RMA) and natriuretic efficacy after […] (IP) administration to rats are collected in Table II.
# ^a Lowest inhibitor concentration (μM) that gave greater than 20%
# inhibition or lowest concentration tested.
# ^b This is a measure of a compound's ability to inhibit the relaxatio
# of norepinephrine (5 μM) contracted rabbit mesenteric artery rings by
# pinacidil (1 μM). It is expressed as percent inhibition. Compounds wit
# 65% or greater inhibition at 5 μM are considered to be active, with
# 20-65% inhibition moderately active and with less than 20% inhibition
# [3] = Diuretic screen: urinary Na^+ excretion after IP administration to rats; type: in vivo, rat (female Harlan Sprague-Dawley); conditions: rat, IP, 5, 15 and 30 mg/kg, 5 hour test period
# Experimental: as §1
# The diuretic activity was determined in female Harlan Sprague-Dawley rats weighing 200 to 230 grams that were fasted 15 hours overnight, and then were deprived of both food and water for an additional hour prior to dosing. […] It approximates the area under the dose response curve. The vehicle was 20% dimethylacetamide (DMA; v/v) in a pH 7.4 phosphate buffer (0.58% Na2 HPO4 and 0.13% NaH2 PO4.H2 O). Sufficient drug was suspended in 1 to 2 ml of this vehicle to deliver doses of 5, 15 and 30 mg/kg in a volume of 0.5 ml (2-4 rats/dose). At least 2 vehicle control rats, and, for most tests, 2 standard diuretic treated rats were included in each experiment. Standards used as comparators included the K^+ retaining diuretic amiloride and the K^+ wasting diuretics furosemide, hydrochlorothiazide and metolazone.
# Following their IP doses, the rats' urinary bladders were gently compressed to eliminate all pretreatment urine, and two identically treated rats were placed in a stainless steel metabolism cage equipped with a graduated test tube to collect voided urine. At 2 and 5 hours post treatment, the rats' bladders were again compressed, the volume of urine excreted by the pair of rats was recorded, and aliquots of urine were retained for analysis of Na^+ and K^+ concentrations with a NOVA-13 selective ion analyzer. Following the 5 hour urine collection, the rats were returned to their stock cages, and at least 1 week of recovery was allowed between a maximum of 3 diuretic tests.
# The electrolyte concentrations detected in these urine samples were manually multiplied by their respective volumes to determine total milliequivalent (mEq) excretion of Na^+ and K^+ per pair of rats, and the results obtained with multiple racks per drug treatment were averaged. Increases in urinary Na^+ excretion of 50% or more above the pooled control tests were regarded as reflecting activity.
# ^c This represents the net increase (above control) in urinary
# Na^+ excretion (μEq) for the 5 hour test period divided by the
# total of the three drug doses (mg/kg) administered IP in the stage II
# diuretic screen in rats. It approximates the area under the dose response
SMILES,inhibition at 10 µM [2] [%],5 h Net Natriuretic Efficacy (net increase above control in urinary Na^+ excretion divided by total of three doses) [3] [μEq Na^+ /mg/kg],further results
CC(N/C(=N\C#N)Nc1ccncc1)C(C)(C)C (centres unmarked) [pinacidil],,,K^+ channel dependent vasodilation by pinacidil [1]: maximal K^+ channel dependent vasodilation
"CC(=O)Nc1cncc(NC(=NC#N)NC2(c3ccccc3)CCC2)c1 [Compound 13, N-(5-Acetylamino-3-pyridyl)-N""-cyano-N'-(1-phenylcyclobutyl)guanidine]",6.4,15,
"N#CN=C(Nc1cnc(Cl)c(N)c1)NC1(c2ccccc2)CCC1 [Compound 1, N-(5-Amino-6-chloro-3-pyridyl)-N""-cyano-N'-(1-phenylcyclobutyl)guanidine]",,39,inhibition at 0.1 µM [2]: 90%
"CC[C@@H](NC(=NC#N)Nc1cccnc1C)c1ccccc1 [Compound 11, (R)-N-(2-Methyl-3-pyridyl)-N""-cyano-N'-(1-phenylpropyl)guanidine]",91.6,25,
"CN(C)c1ncccc1NC(=NC#N)NC1(c2ccccc2)CCC1 [Compound 4, N-[2-(Dimethylamino)-3-pyridyl]-N""-cyano-N'-(1-phenylcyclobutyl)guanidine]",,10,inhibition at 2 µM ([2]; conc. 2.0 μM): 87%
"CC[C@@H](NC(=NC#N)Nc1cncc(Br)c1)c1ccccc1 [Compound 9, (R)-N-(5-Bromo-3-pyridyl)-N""-cyano-N'-(1-phenylpropyl)guanidine]",94.6,12,
"Cc1nc(N)ccc1NC(=NC#N)NC1(c2ccccc2)CCC1 [Compound 2, N-(6-Amino-2-methyl-3-pyridyl)-N""-cyano-N'-(1-phenylcyclobutyl)guanidine, methanol solvate]",,77,inhibition at 0.3 µM [2]: 96%
"CC[C@@H](NC(=NC#N)Nc1ccc(NS(C)(=O)=O)nc1)c1ccccc1 [Compound 14, (R)-N-(6-Methanesulfonylamino-3-pyridyl)-N""-cyano-N'-(1-phenylpropyl)guanidine]",,21,inhibition at 30 µM ([2]; conc. 30 μM): 2.3%
"CC[C@@H](N=C(NC#N)Nc1cccnc1Cl)c1ccccc1 [Compound 6, (R)-N-(2-chloro-3-pyridyl)-N'-cyano-N""-(1-phenylpropyl)guanidine]",,48,inhibition at 0.1 µM [2]: 77.5%
"CC[C@@H](NC(=NC#N)Nc1cncc(N)c1)c1ccccc1 [Compound 12, (R)-N-(5-Amino-3-pyridyl)-N""-cyano-N'-(1-phenylpropyl)guanidine]",85.8,26,
"N#CN=C(Nc1cncc(N)c1)NC1(c2ccccc2)CCC1 [Compound 3, N-(5-Amino-3-pyridyl)-N""-cyano-N'-(1-phenylcyclobutyl)guanidine]",,50,inhibition at 0.3 µM [2]: 93%
"CC[C@@H](NC(=NC#N)Nc1ccc(NCCF)nc1)c1ccccc1 [Compound 10, (R)-N-[6-(2-Fluoroethylamino)-3-pyridyl]-N""-cyano-N'-(1-phenylpropyl)guanidine]",72.3,34,
"C[C@@H](NC(=NC#N)Nc1cccnc1N(C)C)c1ccccc1 [Compound 5, (R)-N-[2-(Dimethylamino)-3-pyridyl]-N""-cyano-N'-(1-phenylethyl)guanidine]",,15,inhibition at 5 µM ([2]; conc. 5 μM): 17.4%
"N#CN=C(Nc1ccc(NCCF)nc1)NC1(c2ccccc2)CCC1 [Compound 7, N-[6(2-Fluoroethylamino)-3-pyridyl]-N""-cyano-N'-(1-phenylcyclobutyl)guanidine]",,60,inhibition at 1 µM ([2]; conc. 1.0 μM): 24.3%
"CC[C@@H](NC(=NC#N)Nc1ccc(C)nc1)c1ccccc1 [Compound 8, (R)-N-(6-Methyl-3-pyridyl)-N""-cyano-N'-(1-phenylpropyl)guanidine]",84.1,25,
